# Assay results as given in paper PMC7005452 (Heliyon, 2020).
# Read-outs that look alike come from different tables or passages of the source.
# Tests used:
# [1] = WST-1 cytotoxicity / cell viability assay; format: cell-based, human; conditions: human, HEK293 cells, log-probit on percentage mortality, read-out: LC50
# Description: (§1) Human embryonic kidney 293 (HEK293) and CACO2 cells were purchased from ATCC. Cells were cultured in DMEM (Corning, USA) supplemented with 10% FBS (Gibco, USA) and 1% penicillin/streptomycin (Gibco, USA). SH-SY5Y cells were gifted by Dr. Dong-Hyung Cho's laboratory in the Dept. of Life Science at Kyungpook National University and were grown in DMEM with high glucose (Gibco, USA). Cells were grown to 80–90% confluence in a 10 cm plate before splitting into a 96 well plate. […] After 48 h incubation, 10% (v/v) of water soluble tetrazolium salt (WST, DoGen Inc., South Korea) was added to each well, following the manufacturer's instruction. Orange color development for enzyme-substrate reaction was monitored, using spectrophotometry at 450 nm (Tecan Sunrise, Switzerland).
# (§2) One-way ANOVA, followed by a post-hoc Tukey's HSD test, was used to determine differences in toxicity, and repellency percentages (P < 0.05) (SAS for Window release 6, SAS Institute). All percentage mortality data were corrected using Abbott's formula ([Abbott, 1987]). […] Adult repellency percentage was calculated using the formula PR (%) = [(C-T)/(C + T)] × 100 ([Liu et al., 2013]). All analyses were performed in SAS version 9.4. All the graphs were drawn with SigmaPlot 12.5 (Systat Software, Inc., San Jose, CA, USA).
# (§3) As the safety of agricultural products and foods became a major concern and issue in the modern society, validating the effects of pesticides on human physiology and setting the safety limits of their use is important ([Fan and Jackson, 1989]; [Kim et al., 2017]). […] WST-1 is a substrate of mitochondrial dehydrogenases and is converted to a colored dye called formazan in viable cells. Because the intensity of dye is proportional to the amount of enzyme, WST-1 reagent cell proliferation assay is widely used to measure the cell viability ([Ngamwongsatit et al., 2008]).
# HEK293 cells = experiment: WST-1 cytotoxicity / cell viability assay; format: cell-based, human
# Description: as §1, §2, §3
# SH-SY5Y cells = experiment: WST-1 cytotoxicity / cell viability assay; format: cell-based, human
# Description: as §1, §2
# (§4) It has also been used as a preservative for cosmetic products. In addition, it was reported that methylparaben is a chemical compound present in local anesthetic that can alter the function of the human nervous system ([Nathan and Sears, 1961]).
# [2] = WST-1 cytotoxicity / cell viability assay; format: cell-based, human; conditions: human, SH-SY5Y cells, log-probit on percentage mortality, read-out: LC50
# Description: as §1, §2, §4
# [3] = tested on: HSP70, CCNB1 (cyclin B1), and CCND1 (cyclin D1); experiment: Real-time PCR, HSP70, CCNB1 and CCND1 mRNA expression in SH-SY5Y cells; format: cell-based, human; conditions: 48 h, MB 3.7 mM, EB 1.7 mM, VB 1.7 mM
# Description: (§5) HEK293 and SH-SY5Y cells were grown to 60–70% confluence in 6 well plates and the media were exchanged with the ones including the chemicals, MB, EB, or VB in the given concentrations. After 48 h incubation, the cells were washed with cold PBS once and scraped. The cells were washed again with cold PBS twice before extracting total RNA molecules using Qiagen RNeasy kit. cDNAs were constructed from 600 ng of the collected RNAs using Reverse Transcription System (Promega, Japan). cDNA was analyzed through real-time quantifying PCR using SYBR Green Realtime PCR Master Mix (Toyobo, Japan) according to the manufacturer's instructions (CFX96 Touch Real-time PCR System, Bio-Rad).
# (§6) Further, we prompted to assess whether the gene expression of cell cycle and stress regulators such as cyclins and HSP70 is affected by MB, EB, and VB. These chemicals were applied to the HEK293 or SH-SY5Y cells at the concentrations of 4.4 mM [0.06% MB, 0.05% (3.7 mM) for SH-SY5Y cells], 1.7 mM (0.025%, EB), and 1.7 mM (0.025%, VB), respectively, for 48 h before extracting the total RNAs from the cells. The concentrations were chosen based on the LC50 values, approximately a third of the values, that would not cause cell death but could influence the gene expression in the tested cells. mRNAs of HSP70, CCNB1 (cyclin B1), and CCND1 (cyclin D1) were quantified by real-time PCR with ACTIN as a reference gene. Cyclin B1 is a checkpoint regulator for S/G2 transition, whereas cyclin D1 is for G1 progression ([Baldin et al., 1993]; [Hwang et al., 1995]). […] The mRNA expression of HSP70, a stress-inducible gene ([Huang et al., 2001]), decreased in MB-, EB-, and VB-treated HEK293 cells, and VB-treated samples showing the least expression (Figure 4A). […] For SH-SY5Y cells, we also measured the mRNA expression of AChE, acetylcholinesterase gene ([Dvir et al., 2010]), because of the similar structure of these chemicals to methylparaben ([Nathan and Sears, 1961]) and of the fact that MB has been reported to have a repellent effect against some insect pests such as Bemisia tabaci (Gennadius) ([Mostafiz et al., 2018]).
# HSP70 [4] = experiment: Real-time PCR, HSP70 mRNA expression in HEK293 cells; format: cell-based, human; conditions: HEK293, 48 h, MB 4.4 mM, EB 1.7 mM, VB 1.7 mM, ACTIN reference
# Description: as §5, §6
# CCNB1 (cyclin B1) = experiment: Real-time PCR, cyclin B1 mRNA expression in HEK293 cells; format: cell-based, human; conditions: HEK293, 48 h, MB 4.4 mM, EB 1.7 mM, VB 1.7 mM, ACTIN reference
# Description: as §5, §6
# [5] = tested on: AChE, acetylcholinesterase gene; experiment: Real-time PCR, AChE mRNA expression in SH-SY5Y cells; format: cell-based, human; conditions: 48 h, MB 3.7 mM, EB 1.7 mM, VB 1.7 mM
# Description: as §5, §6
# [6] = Visual observation of aggregates in cell culture media; format: physicochemical; conditions: MB higher than 5.5 mM (0.075%) applied to the media; persisted with T20
# Description: Therefore, we aimed to identify an upper limit of MB concentration between 0.1 and 11 mM (0.001% and 0.15%) where the growth of HEK293 cells was less affected. Seven MB concentrations, 0, 0.1, 0.7, 3.7, 5.5, 7.0, 11 mM (0%, 0.001%, 0.01%, 0.05%, 0.075%, 0.1%, and 0.15%), were applied to HEK293 cells and the WST-1 experiment was performed. […] This might be because of the hydrophobicity of MB which causes it to form aggregates facilitated by the aqueous condition in the cell culture media. […] The WST-1 data were similar to the results without T20, except for 5.5 mM MB. […] We attributed the increased sensitivity of MB concentration 5.5 mM (0.075%) in the acetone-T20 solvent to the synergistic cytotoxic effect in the presence of the detergent, T20 with MB or the enhanced solubility of MB.
# [7] = WST-1 cytotoxicity / cell viability assay; format: cell-based, human; conditions: human, CACO2 cells; CACO2, WST assay, log-probit on percentage mortality; read-out: LC50
# Description: as §1, §2
# (§7) Ingested residual pesticides from agricultural foods may stay in the colon for a longer time than any other organs.
# CACO2 cells = experiment: WST-1 cytotoxicity / cell viability assay; format: cell-based, human; conditions: for reduction in CACO2 cells in the WST-1 assay: acetone-T20 solvent
# Description: as §1, §2, §7
# [8] = Crystal violet cell staining assay; format: cell-based; conditions: human, HEK293 cells, in agreement with WST-1, read-out: upper limit of MB concentration for HEK293 cell viability
# Description: For the crystal violet experiment, cells were split into a 96 well and MB was applied to each well as described above and then HEK293 cells were grown for 1–2 days and CACO2 cells for 4–5 days. Crystal violet staining method published by M. [Feoktistova et al., (2016)] was used without modifications. The resultant plate was taken picture of. In addition, the stained cells were dissolved in methanol and the intensity of color was measured at 595 nm (Tecan Sunrise, Switzerland).
# CCND1 (cyclin D1) = experiment: Real-time PCR, cyclin D1 mRNA expression in HEK293 cells; format: cell-based, human; conditions: HEK293, 48 h, VB 1.7 mM, ACTIN reference
# Description: as §5
# Further, we prompted to assess whether the gene expression of cell cycle and stress regulators such as cyclins and HSP70 is affected by MB, EB, and VB. These chemicals were applied to the HEK293 or SH-SY5Y cells at the concentrations of 4.4 mM [0.06% MB, 0.05% (3.7 mM) for SH-SY5Y cells], 1.7 mM (0.025%, EB), and 1.7 mM (0.025%, VB), respectively, for 48 h before extracting the total RNAs from the cells. The concentrations were chosen based on the LC50 values, approximately a third of the values, that would not cause cell death but could influence the gene expression in the tested cells. mRNAs of HSP70, CCNB1 (cyclin B1), and CCND1 (cyclin D1) were quantified by real-time PCR with ACTIN as a reference gene. […]
# HSP70 [9] = experiment: Western blot, HSP70 protein level in HEK293 cells; format: cell-based, human; conditions: HEK293, VB 1.7 mM (250 ppm), α-Tubulin loading control
# Description: HEK293 cells grown in 6 well plates for Western blots and SDS polyacrylamide gel electrophoresis (SDS-PAGE) were washed with cold PBS twice and scraped in RIPA buffer (Cell Signaling, Cat. 9806, USA). Protein concentration in each sample was measured through Bradford assay using Bio-Rad Protein Assay Dye Reagent Concentrate (Bio-Rad #5000006) and spectrophotometry at 595 nm (Tecan Sunrise™ Absorbance Microplate Reader, Switzerland). From the measured protein concentration, a total of 15 μg of proteins per each sample were loaded on 7% SDS-PA gels, blotted onto nitrocellulous membrane, and probed for HSP70 and α-Tubulin using corresponding antibody (HSP70, Santa Cruz sc-32239; α-Tubulin, Santa Cruz sc-8035) in Western blot assay.
# Further, we prompted to assess whether the gene expression of cell cycle and stress regulators such as cyclins and HSP70 is affected by MB, EB, and VB. […] The concentrations were chosen based on the LC50 values, approximately a third of the values, that would not cause cell death but could influence the gene expression in the tested cells. mRNAs of HSP70, CCNB1 (cyclin B1), and CCND1 (cyclin D1) were quantified by real-time PCR with ACTIN as a reference gene. […]
# [10] = log-probit on percentage mortality
# [11] = log-probit on percentage mortality, read-out: LC50 (the source's name)
SMILES,CC50 at 48 h [1],LC50 (HEK293 cells; [10]),LC50 (SH-SY5Y cells; [10]),CC50 at 48 h [2],"mRNA expression of HSP70, CCNB1 and CCND1 [3]",HSP70 mRNA expression compared with solvent control (HSP70 [4]),cyclin B1 mRNA expression compared with solvent control (CCNB1 (cyclin B1)),AChE mRNA expression [5],aggregate formation in cell culture media [6],CC50 at 48 h [7],"reduction in CACO2 cells in the WST-1 assay (CACO2 cells; CACO2, MB 3.7 mM (0.05%))","reduction in CACO2 cells in the WST-1 assay (CACO2 cells; CACO2, MB 7.3 mM (0.1%))","LC50 (CACO2 cells; CACO2, WST assay, log-probit on percentage mortality)",viability [8],cyclin D1 mRNA expression compared with solvent control (CCND1 (cyclin D1)),"relative toxicity among MB, EB and VB (HEK293 cells)",CC50 (HEK293 cells; [11]),HSP70 protein level (HSP70 [9]),"relative toxicity among MB, EB and VB (SH-SY5Y cells)",CC50 (SH-SY5Y cells; [11])
"CCOC(=O)c1ccccc1 [EB, ethyl benzoate]",6.9 mM,0.104%,0.11%,7.3 mM,did not display notable differential expressions,decreased,rarely differentiated,hardly any change,,,,,,,,,,,,
"COC(=O)c1ccccc1 [MB, Methyl benzoate]",13.2 mM,0.18%,0.15%,11 mM,did not display notable differential expressions,decreased,rarely differentiated,hardly any change,formed silver-colored aggregates,20.6 mM,about 30%,> 90%,0.28%,≤ 0.05%,,,,,,
"C=COC(=O)c1ccccc1 [VB, vinyl benzoate]",,0.08%,0.09%,,did not display notable differential expressions,decreased,rarely differentiated,mild increase,,,,,,,noticeable reduction,most toxic,5.4 mM,consistently decreased,most toxic,6.1 mM
